The source of these data is US8785460B2, “Tricyclic compounds and use thereof” (Takeda Pharmaceutical Company Limited, priority 2008, dated 2014).

For one data set, the target named is T1, human CRF1 receptor (Homo sapiens, UniProt P34998).
T1 construct: expressed in transfected cells; host or cells: CHO cells (membrane fraction)
T1 sequence (P34998 24-415): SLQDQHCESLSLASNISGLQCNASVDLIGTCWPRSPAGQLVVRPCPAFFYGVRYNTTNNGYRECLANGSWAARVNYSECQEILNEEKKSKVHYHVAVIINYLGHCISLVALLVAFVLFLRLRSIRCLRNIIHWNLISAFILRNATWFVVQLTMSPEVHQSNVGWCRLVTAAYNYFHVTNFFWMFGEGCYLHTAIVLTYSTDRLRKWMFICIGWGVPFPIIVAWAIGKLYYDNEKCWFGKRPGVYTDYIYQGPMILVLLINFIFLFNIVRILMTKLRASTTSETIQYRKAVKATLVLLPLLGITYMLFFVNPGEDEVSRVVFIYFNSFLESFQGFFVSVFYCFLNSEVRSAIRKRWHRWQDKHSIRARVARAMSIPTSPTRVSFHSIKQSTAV
The experiment in a line: Measurement of CRF Binding Inhibitory Rate (receptor binding experiment with 125I-CRF). Particulars: human CRF1 receptor expressing CHO cellular membrane fraction, 50 pM 125I-CRF, room temperature 1.5 hr, 0.05 nM to 10 μM of compound; read-out: IC50 values (CRF binding inhibition).

As to `CCC(O)c1ccc(Cl)c2nc3n(c12)CCCN3c1c(Cl)cc(Cl)cc1Cl` (centres unmarked) [Example 391, 1-[9-Chloro-1-(2,4,6-trichlorophenyl)-1,2,3,4-tetrahydropyrimido[1,2-a]benzimidazol-6-yl]propan-1-ol], the melting point – broadly, the temperature of the solid-liquid transition – is 213 to 214 °C. On human CRF1 receptor, the IC50 (usually the concentration that gives 50% inhibition) is less than 1000 nM.

Compound `Cc1nc(OC(C)C)nc(C)c1N1CCCn2c1nc1c(Cl)ccc(C(OC(F)F)C(F)(F)F)c12` (centres unmarked) [Example 211, 9-Chloro-6-[1-(difluoromethoxy)-2,2,2-trifluoroethyl]-1-[4,6-dimethyl-2-(1-methylethoxy)pyrimidin-5-yl]-1,2,3,4-tetrahydropyrimido[1,2-a]benzimidazole] came in with a melting point of 227 to 230 °C. For the same compound, on human CRF1 receptor, the IC50 was less than 1000 nM.

With `CCN(CC)c1cccc2nc3n(c12)CCCN3c1cnc(OC)nc1OC` [Example 79, 1-(2,4-Dimethoxypyrimidin-5-yl)-N,N-diethyl-1,2,3,4-tetrahydropyrimido[1,2-a]benzimidazol-6-amine], the melting point fell in the range of 170 to 171 °C. Moreover, on human CRF1 receptor, the 50% inhibitory concentration (IC50) was less than 1000 nM.

`CCC(NC(C)=O)c1ccc(Cl)c2nc3n(c12)CCCN3c1ccc(Cl)cc1Cl` (centres unmarked) [Example 440, N-{1-[9-Chloro-1-(2,4-dichlorophenyl)-1,2,3,4-tetrahydropyrimido[1,2-a]benzimidazol-6-yl]propyl}acetamide] displayed a melting point of 237 to 239 °C. Further, the IC50 on human CRF1 receptor was less than 1000 nM.

The compound `CCC(NC(=O)C(F)F)c1ccc(Cl)c2nc3n(c12)CCCN3c1c(Cl)cc(Cl)cc1Cl` (centres unmarked) [Example 409, N-{1-[9-Chloro-1-(2,4,6-trichlorophenyl)-1,2,3,4-tetrahydropyrimido[1,2-a]benzimidazol-6-yl]propyl}-2,2-difluoroacetamide] gave a melting point of 211 to 213 °C. The IC50 on human CRF1 receptor was less than 1000 nM.

`CCCOc1ccc(N2CCCn3c2nc2c(Cl)ccc(C(OC(F)F)C(F)(F)F)c23)c(C)n1` (centres unmarked) [Example 289, 9-Chloro-6-[1-(difluoromethoxy)-2,2,2-trifluoroethyl]-1-(2-methyl-6-propoxypyridin-3-yl)-1,2,3,4-tetrahydropyrimido[1,2-a]benzimidazole]: the melting point is 156 to 158 °C. Also, the 50% inhibitory concentration (IC50) at human CRF1 receptor is less than 1000 nM.

As to `CC(C)(CO)c1ccc(Cl)c2nc3n(c12)CCCN3c1ccc(Cl)cc1Cl` [Example 148, 2-[9-Chloro-1-(2,4-dichlorophenyl)-1,2,3,4-tetrahydropyrimido[1,2-a]benzimidazol-6-yl]-2-methylpropan-1-ol], the melting point was in the range of 176 to 177 °C. The IC50 at human CRF1 receptor is less than 1000 nM.

In turn, `CCC(CCOC)c1ccc(Cl)c2nc3n(c12)CCCN3c1ccc(Cl)cc1Cl` (centres unmarked) [Example 453, 9-Chloro-1-(2,4-dichlorophenyl)-6-(1-ethyl-3-methoxypropyl)-1,2,3,4-tetrahydropyrimido[1,2-a]benzimidazole] yielded a melting point of 144 to 146 °C. Besides, the IC50 at human CRF1 receptor was less than 1000 nM.

For the compound `CCN(CC)c1cc(F)cc2nc3n(c12)CCCN3c1ccc(Cl)cc1Cl` [Example 335, 1-(2,4-Dichlorophenyl)-N,N-diethyl-8-fluoro-1,2,3,4-tetrahydropyrimido[1,2-a]benzimidazol-6-amine], the melting point lay in the range of 142 to 145 °C. For the same compound, the IC50 at human CRF1 receptor was less than 1000 nM.

Compound `CCC(OC)c1cccc2nc3n(c12)CCCN3c1ccc(Cl)cc1Cl` (centres unmarked) [Example 93, 1-(2,4-Dichlorophenyl)-6-(1-methoxypropyl)-1,2,3,4-tetrahydropyrimido[1,2-a]benzimidazole] displayed a melting point of 151 to 153 °C. Also, on human CRF1 receptor, the IC50 was less than 1000 nM.

On to `CCC(CC)c1ccc(Cl)c2nc3n(c12)CCCCN3c1ncc(C(N)=O)cc1C` [Example 340, 6-[10-Chloro-7-(1-ethylpropyl)-2,3,4,5-tetrahydro-1H-[1,3]diazepino[1,2-a]benzimidazol-1-yl]-5-methylpyridine-3-carboxamide], for which the melting point was in the range of 234 to 235 °C. Besides, on human CRF1 receptor, the IC50 is less than 1000 nM.

The compound `COc1nc(C)c(N2CCCn3c2nc2c(Cl)ccc(C(OCC(F)(F)F)C4CC4)c23)c(C)n1` (centres unmarked) [Example 189, 9-Chloro-6-[cyclopropyl(2,2,2-trifluoroethoxy)methyl]-1-(2-methoxy-4,6-dimethylpyrimidin-5-yl)-1,2,3,4-tetrahydropyrimido[1,2-a]benzimidazole] had a melting point of 225 to 227 °C. Further, the IC50 at human CRF1 receptor is less than 1000 nM.

`Cc1cc(OC(C)C)ccc1N1CCCn2c1nc1c(Cl)ccc(C(OC(F)F)C(F)(F)F)c12` (centres unmarked) [Example 357, 9-Chloro-6-[1-(difluoromethoxy)-2,2,2-trifluoroethyl]-1-[2-methyl-4-(propan-2-yloxy)phenyl]-1,2,3,4-tetrahydropyrimido[1,2-a]benzimidazole] had a melting point of 198 to 204 °C. The IC50 on human CRF1 receptor is less than 1000 nM.

The compound `CCC(OC(C)=O)c1ccc(Cl)c2nc3n(c12)CCCN3c1ccc(N(C)C)nc1C` (centres unmarked) [Example 166, 1-{9-Chloro-1-[6-(dimethylamino)-2-methylpyridin-3-yl]-1,2,3,4-tetrahydropyrimido[1,2-a]benzimidazol-6-yl}propyl acetate] displayed a melting point of 165 to 166 °C. For the same compound, the IC50 at human CRF1 receptor is less than 1000 nM.

In turn, `CCC(CC)c1ccc(Cl)c2nc3n(c12)CCCCN3c1cnc(Br)c(C)c1` [Example 338, 1-(6-Bromo-5-methylpyridin-3-yl)-10-chloro-7-(1-ethylpropyl)-2,3,4,5-tetrahydro-1H-[1,3]diazepino[1,2-a]benzimidazole] gave a melting point of 137 to 140 °C. Further, the IC50 on human CRF1 receptor is less than 1000 nM.

With `CCC(CC)c1ccc(Cl)c2nc3n(c12)C(Cl)(Cl)C(=O)N3c1c(C)cc(Cl)cc1OC` [Example 11, 3,3,8-Trichloro-1-(4-chloro-2-methoxy-6-methylphenyl)-5-(1-ethylpropyl)-1H-imidazo[1,2-a]benzimidazol-2(3H)-one], the melting point was in the range of 190 to 192 °C. Also, at human CRF1 receptor, the IC50 was less than 1000 nM.

`CCC(OC(=O)C1CC1)c1ccc(Cl)c2nc3n(c12)CCCN3c1ccc(OC)nc1C` (centres unmarked) [Example 268, 1-[9-Chloro-1-(6-methoxy-2-methylpyridin-3-yl)-1,2,3,4-tetrahydropyrimido[1,2-a]benzimidazol-6-yl]propyl cyclopropanecarboxylate] had a melting point of 149 to 151 °C. Further, on human CRF1 receptor, the IC50 is less than 1000 nM.

In turn, `FC(F)(F)COC(c1ccc(Cl)c2nc3n(c12)CCCN3c1ccc(Cl)cc1Cl)C1CC1` (centres unmarked) [Example 455, 9-Chloro-6-[cyclopropyl (2,2,2-trifluoroethoxy)methyl]-1-(2,4-dichlorophenyl)-1,2,3,4-tetrahydropyrimido[1,2-a]benzimidazole] gave a melting point of 143 to 145 °C. At human CRF1 receptor, the half-maximal inhibitory concentration (IC50) was less than 1000 nM.

As for `OC(c1ccc(Cl)c2nc3n(c12)CCCN3c1ccc(Cl)cc1Cl)C1CC1` (centres unmarked) [Example 113, [9-Chloro-1-(2,4-dichlorophenyl)-1,2,3,4-tetrahydropyrimido[1,2-a]benzimidazol-6-yl](cyclopropyl)methanol], the melting point lay in the range of 223 to 224 °C. Moreover, the IC50 at human CRF1 receptor was less than 1000 nM.

Take `CCC(OC(C)=O)c1ccc(Cl)c2nc3n(c12)CCCCN3c1ccc(OC)cc1Cl` (centres unmarked) [Example 334, 1-[10-Chloro-1-(2-chloro-4-methoxyphenyl)-2,3,4,5-tetrahydro-1H-[1,3]diazepino[1,2-a]benzimidazol-7-yl]propyl acetate]: the melting point was in the range of 177 to 179 °C. In addition, the IC50 at human CRF1 receptor is less than 1000 nM.

On to `COc1nc(C)c(N2CCCn3c2nc2c(Cl)ccc(C(O)(C4CC4)C4CC4)c23)c(C)n1` [Example 188, [9-Chloro-1-(2-methoxy-4,6-dimethylpyrimidin-5-yl)-1,2,3,4-tetrahydropyrimido[1,2-a]benzimidazol-6-yl](dicyclopropyl)methanol], for which the melting point lay in the range of 220 to 221 °C. In addition, the IC50 on human CRF1 receptor is less than 1000 nM.

As for `COCC(C)(C)c1ccc(Cl)c2nc3n(c12)CCCN3c1ccc(Cl)cc1Cl` [Example 150, 9-Chloro-1-(2,4-dichlorophenyl)-6-(2-methoxy-1,1-dimethylethyl)-1,2,3,4-tetrahydropyrimido[1,2-a]benzimidazole], the melting point was in the range of 188 to 190 °C. The IC50 on human CRF1 receptor is less than 1000 nM.

`Cc1nc(C2CC2)nc(C)c1N1CCCn2c1nc1c(Cl)ccc(C(OC(F)F)C(F)(F)F)c12` (centres unmarked) [Example 218, 9-Chloro-1-(2-cyclopropyl-4,6-dimethylpyrimidin-5-yl)-6-[1-(difluoromethoxy)-2,2,2-trifluoroethyl]-1,2,3,4-tetrahydropyrimido[1,2-a]benzimidazole]: the melting point lay in the range of 191 to 193 °C. Further, the IC50 on human CRF1 receptor was less than 1000 nM.

`CCCC(O)(CCC)c1ccc(Cl)c2nc3n(c12)CCCN3c1ccc(Cl)cc1Cl` [Example 233, 4-[9-Chloro-1-(2,4-dichlorophenyl)-1,2,3,4-tetrahydropyrimido[1,2-a]benzimidazol-6-yl]heptan-4-ol] displayed a melting point of 133 to 135 °C. For the same compound, the IC50 at human CRF1 receptor was less than 1000 nM.

Regarding `CCN(CC)c1ccc(F)c2nc3n(c12)CCCN3c1ccc(Cl)cc1Cl` [Example 365, 1-(2,4-Dichlorophenyl)-N,N-diethyl-9-fluoro-1,2,3,4-tetrahydropyrimido[1,2-a]benzimidazol-6-amine], the melting point lay within 170 to 172 °C. On human CRF1 receptor, the IC50 is less than 1000 nM.
